Measured values reported in US20050101595A1, “N-containing cycloalkyl-substituted amino-thiazole derivatives and pharmaceutical compositions for inhibiting cell proliferation and methods for their use” (PFIZER INC., priority 2003, published 2005).
pIC50: −log10 of the molar value.

The compounds below were run on HCT-116 cell line (assay: Inhibition of cell growth, tetrazolium salt (MTT) assay). Conditions: HCT116 cells; compound at 250 nM; 0.25 µM.
Assay type: cell-based
Method: Inhibition of Cell Growth: Assessment of Cytotoxicity:
Inhibition of cell growth was measured using the tetrazolium salt assay, which is based on the ability of viable cells to reduce 3-(4,5-dimethylthiazol-2-yl)-2,5-[2H]-diphenyltetrazolium bromide (MTT) to formazan (Mossman, Journal of Immunological Methods, vol. 65 (1983), pp. 55-58). The water-insoluble purple formazan product was then detected spectrophotometrically. The HCT-116 cell line was used as a representative cancer cell line and grown in 96-well plates. Cells were plated in McCoy's 5A Medium at a volume of 135 μl/well. Plates were incubated for four hours before addition of inhibitor compounds. Different concentrations of inhibitor compounds were added in 0.5% (v/v) dimethylsulfoxide (15 μLuwell), and cells were incubated at 37° C. (5% CO2) for three to five days. At the end of the incubation, MTT was added to a final concentration of 0.2 mg/mL, and cells were incubated for 4 hours more at 37° C. After centrifugation of the plates and removal of medium, the absorbance of the formazan (solubilized in dimethylsulfoxide) was measured at 540 nm. […] All results were compared to control cells treated only with 0.5% (v/v) dimethylsulfoxide.

| Structure (SMILES) | % Inhibition HCT116 @ 250 nM [%] |
| --- | --- |
| CC(=O)NCCNCCS(=O)(=O)N1CCC(Nc2nc(N)c(C(=O)c3c(F)cccc3F)s2)CC1 [Example S165] | 25 |
| Nc1nc(NC2CCN(S(=O)(=O)CCNCc3cccnc3)CC2)sc1C(=O)c1c(F)cccc1F [Example S84] | 12 |

Same assay, conditions: Homo sapiens, HCT-116, 120 h, first HCT-116 column (c4); MTT, three to five days; read-out: HCT-116 IC50

| Structure (SMILES) | pIC50 |
| --- | --- |
| CC(C)(C)CNCCS(=O)(=O)N1CCC(Nc2nc(N)c(C(=O)c3c(F)cccc3F)s2)CC1 [Example K51, (4-Amino-2-{1-[2-(2,2-dimethyl-propylamino)-ethanesulfonyl]-piperidin-4-ylamino}-thiazol-5-yl)-(2,6-difluoro-phenyl)-methanone] | 6.77 |

Same assay, conditions: Homo sapiens, HCT-116, 120 h, second HCT-116 column (c5); MTT, three to five days; read-out: HCT-116 IC50

| Structure (SMILES) | pIC50 |
| --- | --- |
| CC(C)(C)CNCCS(=O)(=O)N1CCC(Nc2nc(N)c(C(=O)c3c(F)cccc3F)s2)CC1 [Example K51, (4-Amino-2-{1-[2-(2,2-dimethyl-propylamino)-ethanesulfonyl]-piperidin-4-ylamino}-thiazol-5-yl)-(2,6-difluoro-phenyl)-methanone] | 6.30 |

Same assay, conditions: Homo sapiens, HCT-116, HCT116 cells; compound at 250 nM; read-out: % Inhibition HCT116 @ 250 nM

| Structure (SMILES) | inhibition at 0.25 µM [%] |
| --- | --- |
| COCCN(C)CCS(=O)(=O)N1CCC(Nc2nc(N)c(C(=O)c3c(F)cccc3F)s2)CC1 [Example S65] | 8 |
| CCOC(=O)CC(C)NCCS(=O)(=O)N1CCC(Nc2nc(N)c(C(=O)c3c(F)cccc3F)s2)CC1 (centres unmarked) [Example S91] | 10 |
| Nc1nc(NC2CCN(S(=O)(=O)CCNCc3ccncc3)CC2)sc1C(=O)c1c(F)cccc1F [Example S83] | 6 |
| Nc1nc(NC2CCN(S(=O)(=O)CCNCc3ccccc3F)CC2)sc1C(=O)c1c(F)cccc1F [Example S95] | 51 |
| Nc1nc(NC2CCN(S(=O)(=O)CCN3CCc4ccccc4C3)CC2)sc1C(=O)c1c(F)cccc1F [Example S27] | 27 |
| Nc1nc(NC2CCN(S(=O)(=O)CCNCc3cccc(Cl)c3)CC2)sc1C(=O)c1c(F)cccc1F [Example S142] | 80 |
| CN(CC#N)CCS(=O)(=O)N1CCC(Nc2nc(N)c(C(=O)c3c(F)cccc3F)s2)CC1 [Example S53] | 17 |
| Cc1ccc(CCNCCS(=O)(=O)N2CCC(Nc3nc(N)c(C(=O)c4c(F)cccc4F)s3)CC2)cc1 [Example S118] | 25 |
| NC(=O)C1CCCN(CCS(=O)(=O)N2CCC(Nc3nc(N)c(C(=O)c4c(F)cccc4F)s3)CC2)C1 (centres unmarked) [Example S12] | 19 |
| Cc1cnc(CNCCS(=O)(=O)N2CCC(Nc3nc(N)c(C(=O)c4c(F)cccc4F)s3)CC2)cn1 [Example S171] | 18 |
| CCCCN(CC#N)CCS(=O)(=O)N1CCC(Nc2nc(N)c(C(=O)c3c(F)cccc3F)s2)CC1 [Example S2] | 18 |
| Nc1nc(NC2CCN(S(=O)(=O)CCNCc3ccccn3)CC2)sc1C(=O)c1c(F)cccc1F [Example S86] | 11 |
| CC(C)N(CCS(=O)(=O)N1CCC(Nc2nc(N)c(C(=O)c3c(F)cccc3F)s2)CC1)C1CCCCC1 [Example S8] | 91 |
| Nc1nc(NC2CCN(S(=O)(=O)CCN3CCC3)CC2)sc1C(=O)c1c(F)cccc1F [Example S174] | 10 |
| Nc1nc(NC2CCN(S(=O)(=O)CCNC3Cc4ccccc4C3)CC2)sc1C(=O)c1c(F)cccc1F [Example S161] | 45 |
| Cc1cc(C)cc(CNCCS(=O)(=O)N2CCC(Nc3nc(N)c(C(=O)c4c(F)cccc4F)s3)CC2)c1 [Example S143] | 55 |
| Nc1nc(NC2CCN(S(=O)(=O)CCNC3c4ccccc4CC3O)CC2)sc1C(=O)c1c(F)cccc1F (centres unmarked) [Example S150] | 33 |
| CC1CCCC(C)N1CCS(=O)(=O)N1CCC(Nc2nc(N)c(C(=O)c3c(F)cccc3F)s2)CC1 (centres unmarked) [Example S14] | 91 |
| Nc1nc(NC2CCN(S(=O)(=O)CCNCc3ccc(F)c(F)c3)CC2)sc1C(=O)c1c(F)cccc1F [Example S127] | 60 |
| Nc1nc(NC2CCN(S(=O)(=O)CCNCCOc3ccccc3)CC2)sc1C(=O)c1c(F)cccc1F [Example S149] | 36 |

| Structure (SMILES) | inhibition at 0.25 µM [%] |
| --- | --- |
| COc1ccc(CNCCS(=O)(=O)N2CCC(Nc3nc(N)c(C(=O)c4c(F)cccc4F)s3)CC2)cc1 [Example S104] | 31 |
| CC(CNCCS(=O)(=O)N1CCC(Nc2nc(N)c(C(=O)c3c(F)cccc3F)s2)CC1)N(C)C (centres unmarked) [Example S131] | 17 |
| Nc1nc(NC2CCN(S(=O)(=O)CCNCCc3ccc(O)cc3)CC2)sc1C(=O)c1c(F)cccc1F [Example S117] | 86 |
| CC(C)(C)CCNCCS(=O)(=O)N1CCC(Nc2nc(N)c(C(=O)c3c(F)cccc3F)s2)CC1 [Example S121] | 20 |
| Nc1nc(NC2CCN(S(=O)(=O)CCNCc3ccccc3Cl)CC2)sc1C(=O)c1c(F)cccc1F [Example S96] | 48 |
| Nc1nc(NC2CCN(S(=O)(=O)CCNCCc3cccs3)CC2)sc1C(=O)c1c(F)cccc1F [Example S148] | 34 |
| C=C(C)CNCCS(=O)(=O)N1CCC(Nc2nc(N)c(C(=O)c3c(F)cccc3F)s2)CC1 [Example S151] | 50 |
| Nc1nc(NC2CCN(S(=O)(=O)CCNC3CCC3)CC2)sc1C(=O)c1c(F)cccc1F [Example S59] | 40 |
| Nc1nc(NC2CCN(S(=O)(=O)CCN3CCC(O)CC3)CC2)sc1C(=O)c1c(F)cccc1F [Example S24] | 14 |
| Nc1nc(NC2CCN(S(=O)(=O)CCN3CCCC3)CC2)sc1C(=O)c1c(F)cccc1F [Example S21] | 35 |
| CCCCN(CCC#N)CCS(=O)(=O)N1CCC(Nc2nc(N)c(C(=O)c3c(F)cccc3F)s2)CC1 [Example S37] | 24 |
| CCN(CCS(=O)(=O)N1CCC(Nc2nc(N)c(C(=O)c3c(F)cccc3F)s2)CC1)Cc1ccncc1 [Example S45] | 13 |
| CC(NCCS(=O)(=O)N1CCC(Nc2nc(N)c(C(=O)c3c(F)cccc3F)s2)CC1)c1ccc(F)cc1 (centres unmarked) [Example S144] | 43 |
| C=CC(O)CN(CCC)CCS(=O)(=O)N1CCC(Nc2nc(N)c(C(=O)c3c(F)cccc3F)s2)CC1 (centres unmarked) [Example S47] | 8 |
| Cc1cccc(CNCCS(=O)(=O)N2CCC(Nc3nc(N)c(C(=O)c4c(F)cccc4F)s3)CC2)c1 [Example S101] | 80 |
| CC(CO)NCCS(=O)(=O)N1CCC(Nc2nc(N)c(C(=O)c3c(F)cccc3F)s2)CC1 (centres unmarked) [Example S90] | 7 |
| Nc1nc(NC2CCN(S(=O)(=O)CCNC3CCCc4ccccc43)CC2)sc1C(=O)c1c(F)cccc1F (centres unmarked) [Example S68] | 21 |
| COC(=O)CN(C)CCS(=O)(=O)N1CCC(Nc2nc(N)c(C(=O)c3c(F)cccc3F)s2)CC1 [Example S49] | 33 |
| Nc1nc(NC2CCN(S(=O)(=O)CCN3CCC(O)C3)CC2)sc1C(=O)c1c(F)cccc1F (centres unmarked) [Example S18] | 14 |
| Nc1nc(NC2CCN(S(=O)(=O)CCNCc3ccc4c(c3)CCO4)CC2)sc1C(=O)c1c(F)cccc1F [Example S169] | 17 |

| Structure (SMILES) | inhibition at 0.25 µM [%] |
| --- | --- |
| Nc1nc(NC2CCN(S(=O)(=O)CCN3CCN(C=O)CC3)CC2)sc1C(=O)c1c(F)cccc1F [Example S17] | 19 |
| CC(C)OCCNCCS(=O)(=O)N1CCC(Nc2nc(N)c(C(=O)c3c(F)cccc3F)s2)CC1 [Example S166] | 9 |
| Nc1nc(NC2CCN(S(=O)(=O)CCN[C@H]3C=CCCC3)CC2)sc1C(=O)c1c(F)cccc1F [Example S172] | 20 |
| CC(CN(C)C)NCCS(=O)(=O)N1CCC(Nc2nc(N)c(C(=O)c3c(F)cccc3F)s2)CC1 (centres unmarked) [Example S130] | 20 |
| CCCC(C)(C)NCCS(=O)(=O)N1CCC(Nc2nc(N)c(C(=O)c3c(F)cccc3F)s2)CC1 [Example S145] | 96 |
| CC(C)c1ccc(CNCCS(=O)(=O)N2CCC(Nc3nc(N)c(C(=O)c4c(F)cccc4F)s3)CC2)cc1 [Example S138] | 22 |
| Cc1ccc(CNCCS(=O)(=O)N2CCC(Nc3nc(N)c(C(=O)c4c(F)cccc4F)s3)CC2)c(C)c1 [Example S137] | 43 |
| C#CCNCCS(=O)(=O)N1CCC(Nc2nc(N)c(C(=O)c3c(F)cccc3F)s2)CC1 [Example S119] | 20 |
| Nc1nc(NC2CCN(S(=O)(=O)CCNCc3ccc(F)cc3F)CC2)sc1C(=O)c1c(F)cccc1F [Example S124] | 51 |
| CN(C)CCNCCS(=O)(=O)N1CCC(Nc2nc(N)c(C(=O)c3c(F)cccc3F)s2)CC1 [Example S114] | 49 |
| CN(CCc1ccccc1)CCS(=O)(=O)N1CCC(Nc2nc(N)c(C(=O)c3c(F)cccc3F)s2)CC1 [Example S29] | 18 |
| CC(C)CN(C)CCS(=O)(=O)N1CCC(Nc2nc(N)c(C(=O)c3c(F)cccc3F)s2)CC1 [Example S38] | 55 |
| Nc1nc(NC2CCN(S(=O)(=O)CCNC3CCc4ccccc43)CC2)sc1C(=O)c1c(F)cccc1F (centres unmarked) [Example S73] | 16 |
| Nc1nc(NC2CCN(S(=O)(=O)CCN[C@H]3CCOC3=O)CC2)sc1C(=O)c1c(F)cccc1F [Example S153] | 100 |
| CCCCN(CCO)CCS(=O)(=O)N1CCC(Nc2nc(N)c(C(=O)c3c(F)cccc3F)s2)CC1 [Example S36] | 17 |
| CN(CCc1ccncc1)CCS(=O)(=O)N1CCC(Nc2nc(N)c(C(=O)c3c(F)cccc3F)s2)CC1 [Example S50] | 17 |
| Cc1ccc(CNCCS(=O)(=O)N2CCC(Nc3nc(N)c(C(=O)c4c(F)cccc4F)s3)CC2)cc1 [Example S105] | 33 |
| Nc1nc(NC2CCN(S(=O)(=O)CCN3CCC(CCO)CC3)CC2)sc1C(=O)c1c(F)cccc1F [Example S25] | 10 |
